Values joined by “and” are separate entries in the source; they are usually repeats but may differ in a detail not shown here. Equal entries are not always repeated. Toxic doses and inconclusive results are not listed. The calls were made as follows: active = survival T/C of 150% or more; inactive = T/C below 125% in these data.
System: P388 leukemia ip, CD2F1 mice, survival T/C
Experiment: NCI In Vivo Anticancer Drug Screen. Data for tumor model P388 Leukemia (intraperitoneal) in CD2F1 (CDF1) mice
Details: endpoint: median survival time, higher = longer survival
Summary of the method: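 Mice carrying the transplanted tumor received test compound or vehicle. Survival was recorded in each group, and the value is the treated-group measurement divided by that of the vehicle-treated control group.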

[1] = dose: 25.0 mg/kg/injection, schedule: Q01DX009 (ip), vehicle: saline
[2] = dose: 50.0 mg/kg/injection, schedule: Q01DX005 (ip), vehicle: Klucel (hydroxypropylcellulose) (HPC)
[3] = dose: 100.0 mg/kg/injection, schedule: Q01DX005 (ip), vehicle: Klucel (hydroxypropylcellulose) (HPC)
[4] = dose: 200.0 mg/kg/injection, schedule: Q01DX005 (ip), vehicle: Klucel (hydroxypropylcellulose) (HPC)
[5] = dose: 50.0 mg/kg/injection, schedule: Q01DX009 (ip), vehicle: Klucel (hydroxypropylcellulose) (HPC)
[6] = dose: 100.0 mg/kg/injection, schedule: Q01DX009 (ip), vehicle: Klucel (hydroxypropylcellulose) (HPC)
[7] = dose: 12.5 mg/kg/injection, schedule: Q01DX005 (ip), vehicle: saline with Tween-80
[8] = dose: 50.0 mg/kg/injection, schedule: Q01DX005 (ip), vehicle: saline with Tween-80
[9] = dose: 12.5 mg/kg/injection, schedule: Q01DX009 (ip), vehicle: saline with Tween-80
[10] = dose: 25.0 mg/kg/injection, schedule: Q01DX009 (ip), vehicle: saline with Tween-80
[11] = dose: 50.0 mg/kg/injection, schedule: Q01DX009 (ip), vehicle: saline with Tween-80
[12] = dose: 100.0 mg/kg/injection, schedule: Q01DX009 (ip), vehicle: saline with Tween-80
[13] = dose: 200.0 mg/kg/injection, schedule: Q01DX009 (ip), vehicle: saline with Tween-80
[14] = dose: 100.0 mg/kg/injection, schedule: Q01DX005 (ip), vehicle: saline with Tween-80
[15] = dose: 200.0 mg/kg/injection, schedule: Q01DX005 (ip), vehicle: saline with Tween-80
[16] = dose: 200.0 mg/kg/injection, schedule: Q01DX009 (ip), vehicle: Klucel (hydroxypropylcellulose) (HPC)
[17] = dose: 100.0 mg/kg/injection, schedule: Q04DX003 (ip), vehicle: saline with Tween-80
[18] = dose: 200.0 mg/kg/injection, schedule: Q04DX003 (ip), vehicle: saline with Tween-80

Measured: T/C

COc1ccc(CC(C)NCC(O)c2ccc(O)c(NC=O)c2)cc1 (stereo not given)
inactive: dose: 6.25 mg/kg/injection, schedule: Q01DX009 (ip), vehicle: saline 100 % of control | dose: 12.5 mg/kg/injection, schedule: Q01DX009 (ip), vehicle: saline 101 % of control | [1] 99 % of control | dose: 50.0 mg/kg/injection, schedule: Q01DX009 (ip), vehicle: suspension in saline 99 % of control | dose: 200.0 mg/kg/injection, schedule: Q01DX009 (ip), vehicle: suspension in saline 91 % of control

O=c1c2ccccc2c(=O)n2n1C1CCC2C1
inactive: [2] 96 % of control | [3] 110 % of control | [4] 100 % of control

CN(C)NC(=S)Sc1ccccc1
inactive: [5] 100 % of control | [6] 99 % of control

Cc1cc(C)[n+](C)c2cc3ccccc3cc12
inactive: [7] 115 % of control | [8] 109 % of control

CCCOC(=O)/C=C(\Cl)C(=O)OCCC
inactive: dose: 6.25 mg/kg/injection, schedule: Q01DX009 (ip), vehicle: saline with Tween-80 104 % of control | [9] 109 % of control | [10] 113 % of control

COc1ccc(C2=C(c3ccccc3)C(C)(C)Oc3ccc4ccccc4c32)cc1
inactive: [2] 95 % of control | [3] 95 % of control | [4] 104 % of control

O=S(=O)(Oc1ccc2ccccc2c1)C(F)(F)C(F)(F)C(F)(F)C(F)(F)F
inactive: [11] 100 % of control | [12] 108 % of control | [13] 108 % of control

C/C=C/COc1cc2c(cc1C(C)c1ccc(OC)cc1)OCO2 (stereo not given)
inactive: [8] 107 % of control | [14] 106 % of control | [15] 119 % of control

COc1ccc(CCN=C(C)c2cc(Cl)cc(Cl)c2O)cc1OC
inactive: [2] 104 % of control | [3] 102 % of control | [4] 95 % of control

O=c1ccnc2sccn12
inactive: dose: 100.0 mg/kg/injection, schedule: Q01DX001 (ip), vehicle: saline 109 % of control | dose: 200.0 mg/kg/injection, schedule: Q01DX001 (ip), vehicle: saline 116 % of control | dose: 400.0 mg/kg/injection, schedule: Q01DX001 (ip), vehicle: saline 101 % of control

CCCCCCC/C=C/C(=O)OC1C(OC2C(OC(CCCCCCC)CC(=O)OC(CCCCCCC)CC(=O)O)OC(C)C(O)C2O)OC(C)C(O)C1O (stereo not given)
inactive: dose: 12.5 mg/kg/injection, schedule: Q01DX009 (ip), vehicle: Klucel (hydroxypropylcellulose) (HPC) 102 % of control and 89 % of control | dose: 25.0 mg/kg/injection, schedule: Q01DX009 (ip), vehicle: Klucel (hydroxypropylcellulose) (HPC) 98 % of control and 120 % of control and 87 % of control | [5] 120 % of control and 95 % of control (2×) | [6] 116 % of control

CCN(CC)CC(O)c1c(-c2ccccc2)c(-c2ccccc2)c2n1CCC2 (stereo not given)
inactive: [5] 103 % of control | [6] 106 % of control | [16] 109 % of control

NC(=O)NC(N)=S
inactive: [10] 100 % of control | [11] 105 % of control | [12] 99 % of control | [13] 98 % of control

CCOC(=S)/N=C1/SCS(=O)(=O)N1c1ccccc1
inactive: dose: 50.0 mg/kg/injection, schedule: Q04DX003 (ip), vehicle: saline with Tween-80 99 % of control | [17] 95 % of control | [18] 98 % of control

[O-][n+]1cc(Cl)cc(Cl)c1
inactive: [1] 100 % of control and 106 % of control | dose: 50.0 mg/kg/injection, schedule: Q01DX009 (ip), vehicle: saline 108 % of control and 96 % of control | dose: 100.0 mg/kg/injection, schedule: Q01DX009 (ip), vehicle: saline 100 % of control and 96 % of control | dose: 200.0 mg/kg/injection, schedule: Q01DX009 (ip), vehicle: saline 99 % of control and 102 % of control | dose: 400.0 mg/kg/injection, schedule: Q01DX009 (ip), vehicle: saline 99 % of control and 96 % of control

CN1C(=O)/C(=C2\SC(=O)N(CN3CCCCC3)C2=O)c2cc(Br)ccc21
inactive: dose: 60.0 mg/kg/injection, schedule: Q01DX005 (ip), vehicle: Klucel (hydroxypropylcellulose) (HPC) 90 % of control | dose: 120.0 mg/kg/injection, schedule: Q01DX005 (ip), vehicle: Klucel (hydroxypropylcellulose) (HPC) 90 % of control | dose: 240.0 mg/kg/injection, schedule: Q01DX005 (ip), vehicle: Klucel (hydroxypropylcellulose) (HPC) 95 % of control

Cc1nc2c(O)ccc(O)c2nc1C
inactive: dose: 3.75 mg/kg/injection, schedule: Q01DX009 (ip), vehicle: saline with Tween-80 99 % of control | dose: 3.75 mg/kg/injection, schedule: Q04DX003 (ip), vehicle: saline with Tween-80 100 % of control | dose: 7.5 mg/kg/injection, schedule: Q01DX009 (ip), vehicle: saline with Tween-80 94 % of control | dose: 7.5 mg/kg/injection, schedule: Q04DX003 (ip), vehicle: saline with Tween-80 99 % of control | dose: 15.0 mg/kg/injection, schedule: Q01DX009 (ip), vehicle: saline with Tween-80 88 % of control | dose: 15.0 mg/kg/injection, schedule: Q04DX003 (ip), vehicle: saline with Tween-80 106 % of control | dose: 30.0 mg/kg/injection, schedule: Q01DX009 (ip), vehicle: saline with Tween-80 95 % of control | dose: 30.0 mg/kg/injection, schedule: Q04DX003 (ip), vehicle: saline with Tween-80 109 % of control | dose: 60.0 mg/kg/injection, schedule: Q01DX009 (ip), vehicle: saline with Tween-80 110 % of control | dose: 60.0 mg/kg/injection, schedule: Q04DX003 (ip), vehicle: saline with Tween-80 109 % of control

C/C=C1/C[N+]2(C)CCc3c([nH]c4ccccc34)C2CC1C(CO)C(=O)OC (stereo not given)
inactive: [9] 96 % of control | [10] 104 % of control | [11] 98 % of control

COc1ccc(Br)cc1/C=N\NS(=O)(=O)c1ccc(C)cc1
inactive: [12] 104 % of control | [17] 116 % of control | [13] 109 % of control | [18] 100 % of control | dose: 400.0 mg/kg/injection, schedule: Q01DX009 (ip), vehicle: saline with Tween-80 122 % of control | dose: 400.0 mg/kg/injection, schedule: Q04DX003 (ip), vehicle: saline with Tween-80 108 % of control

Cn1c(NCCN2CCOCC2)c(C(=O)/C=C/c2ccccc2)c(=O)n(C)c1=O
inactive: [8] 98 % of control | [14] 92 % of control | [15] 95 % of control

Nc1nc(=S)c2[nH]c(N=Nc3ccc(S(=O)(=O)O)cc3)nc2[nH]1
inactive: dose: 6.25 mg/kg/injection, schedule: Q04DX003 (ip), vehicle: saline 123 % of control

CC1(CBr)C2CCC1C(=O)C2 (stereo not given)
inactive: dose: 6.25 mg/kg/injection, schedule: Q01DX005 (ip), vehicle: saline with Tween-80 100 % of control | [7] 96 % of control | dose: 25.0 mg/kg/injection, schedule: Q01DX005 (ip), vehicle: saline with Tween-80 96 % of control

COc1ccc2c(c1)CCC1=C2P(C)(=S)CC1 (stereo not given)
inactive: [5] 101 % of control | [6] 104 % of control | [16] 106 % of control

CCCCCCCCOC(=O)c1ccccc1OP(=O)(N(C)C)N(C)C
inactive: dose: 50.0 mg/kg/injection, schedule: Q01DX005 (ip), vehicle: saline 107 % of control | dose: 100.0 mg/kg/injection, schedule: Q01DX005 (ip), vehicle: saline 112 % of control | dose: 200.0 mg/kg/injection, schedule: Q01DX005 (ip), vehicle: saline 100 % of control

O=C(O)C1SCCCS1
inactive: dose: 60.0 mg/kg/injection, schedule: Q01DX005 (ip), vehicle: saline with Tween-80 100 % of control | dose: 120.0 mg/kg/injection, schedule: Q01DX005 (ip), vehicle: saline with Tween-80 98 % of control | dose: 240.0 mg/kg/injection, schedule: Q01DX005 (ip), vehicle: saline with Tween-80 100 % of control

CON=C1C(C)(C)C(=NOC)C1(C)C
inactive: dose: 12.5 mg/kg/injection, schedule: Q01DX005 (ip), vehicle: Klucel (hydroxypropylcellulose) (HPC) 90 % of control | dose: 25.0 mg/kg/injection, schedule: Q01DX005 (ip), vehicle: Klucel (hydroxypropylcellulose) (HPC) 86 % of control | [2] 99 % of control

Cn1c(=O)c2c(nc3n2CC(CF)O3)n(C)c1=O (stereo not given)
inactive: [5] 104 % of control | [6] 104 % of control | [16] 99 % of control

O=C(O)CCC(=O)N(CCP(c1ccccc1)c1ccccc1)CCP(c1ccccc1)c1ccccc1
inactive: [5] 111 % of control | [6] 112 % of control

Source: PubChem BioAssay AID330 (DTP/NCI, 2004)
